# Assay results from patent publication US20250066349A1 (Prothena Biosciences Limited, priority 2021, published 2025).
# Target: DYRK1A (Homo sapiens (Human), UniProt Q13627)
# Experiment: DYRK1A Inhibition Assay
# Assay type: biochemical
# Details: Compounds of Formula (I); DYRK1A 1 nM, ATP 20 μM, Ser/Thr 18 peptide 2 μM, 90 minutes; read-out: DYRK1 IC50
# Experimental: DYRK1A—Invitrogen #PV4105
# • Ser/Thr 18 peptide—Invitrogen #PR8227U • Phos-Ser/Thr 18 peptide—Invitrogen #PR8229U • Assay plate—PerkinElmer #6007279 • ATP—Sigma #A7699-5G • Development reagent A—Invitrogen #PR5194B • Development buffer—Invitrogen #PR4876B Compound preparation • 1. Test compounds were diluted to 1 mM in DMSO • 2. Stock was further diluted 3-fold using Echo platform • 3. 100 nL of DMSO into Columns 1 and 24 and 100 nL of compounds dilutions to Columns 2-23 in a plate.
# • 1. Add 5 μL enzyme & substrate mixture to each well in Column 2-23 and A24-H24 wells of the 384-well assay plate; • 2. Add 5 μL 0% Phosphorylation control to A1-H1 and I24-P24 wells of the assay plate; • 3. Add 5 μL 100% Phosphorylation control to I1-P1 wells of the assay plate; • 4. Spin the assay plate (1000 rpm, 1 minute @23° C.); • 5. Incubate enzyme with compounds for 15 minutes at 23° C.; • 6. Add 5 μL ATP solution to each well of the assay plate; • 7. Spin the plate (1000 rpm, 1 minute @23° C.); • 8. Incubate the assay plate for 90 minutes at 23° C.; • 9. Add 10 μL Development reagent A to each well of the assay plate; • 10. Centrifuge the plate at 1000 rpm about 15 seconds and seal a film over assay plate. Incubate the assay plate for 30 minutes at 23° C. • 11. Read assay plates on Envision (see Tables A-D).
# Final Compound Concentrations
# • Assay buffer: 50 mM Hepes pH7.5, 10 mM MgCl2, 1 mM EDTA, 0.01% Brij-35 • DYRK1A: 1 nM • ATP: 20 μM • Ser/Thr 18 peptide: 2 μM • Reaction time: 90 minutes
row,SMILES,IC50
1,"O=C(O)C1CC(c2c[nH]c3ncc4ccncc4c23)C1 (stereo not shown) [Compound 35, 3-(7H-pyrrolo[2,3-c][2,6]naphthyridin-9-yl)cyclobutane-1-carboxylic acid]",0.1 to 1 µM
2,"O=C(O)[C@H]1C[C@H](c2c[nH]c3ncc4ccccc4c32)C1 [Compound 33, (1r,3r)-3-(3H-pyrrolo[2,3-c]isoquinolin-1-yl)cyclobutane-1-carboxylic acid]",0.1 to 1 µM
3,"Cn1cc(-c2ccc3cnc4nc(C5CCOCC5)oc4c3c2)cn1 [Compound 82, 8-(1-methyl-1H-pyrazol-4-yl)-2-(tetrahydro-2H-pyran-4-yl)oxazolo[4,5-c]isoquinoline]",0.1 to 1 µM
4,"O=c1[nH]c2ncc(-c3ccc4cnsc4c3)cc2n1C1CCC1 [Compound 31, 6-(benzo[d]isothiazol-6-yl)-1-cyclobutyl-1,3-dihydro-2H-imidazo[4,5-b]pyridin-2-one]",0.1 to 1 µM
5,"Cn1cc(-c2ccc3cnc4nc(C5CCOCC5)sc4c3c2)cn1 [Compound 81, 8-(1-methyl-1H-pyrazol-4-yl)-2-(tetrahydro-2H-pyran-4-yl)thiazolo[4,5-c]isoquinoline]",0.1 to 1 µM
6,"Cc1[nH]c2ncc3ccncc3c2c1-c1cccc(C(=O)O)c1 [Compound 95, 3-(8-methyl-7H-pyrrolo[2,3-c][2,6]naphthyridin-9-yl)benzoic acid]",0.1 to 1 µM
7,"O=C(O)C1CC(c2c[nH]c3ncc4ncccc4c23)C1 (stereo not shown) [Compound 34, 3-(3H-pyrrolo[3,2-f][1,7]naphthyridin-1-yl)cyclobutane-1-carboxylic acid]",0.1 to 1 µM
8,Cc1c(-c2cccnc2)[nH]c2ncc3cnccc3c12 [Compound 53],0.1 to 1 µM
9,"COC1CC(n2c(=O)[nH]c3ncc4ccc(-c5cnn(C)c5)cc4c32)C1 (stereo not shown) [Compound 22, 1-(3-methoxycyclobutyl)-8-(1-methyl-1H-pyrazol-4-yl)-1,3-dihydro-2H-imidazo[4,5-c]isoquinolin-2-one]",0.1 to 1 µM
10,"Cn1cc(-c2ccc3cnc4ncn(C5CCC5)c4c3c2)cn1 [Compound 58, 1-cyclobutyl-8-(1-methyl-1H-pyrazol-4-yl)-1H-imidazo[4,5-c]isoquinoline]",0.01 to 0.1 µM
11,"CC(C)CN1CCC(c2cc3c(ncc4ccc(-c5cn[nH]c5)cc43)[nH]2)CC1 [Compound 89, 2-(1-isobutylpiperidin-4-yl)-8-(1H-pyrazol-4-yl)-3H-pyrrolo[2,3-c]isoquinoline]",0.01 to 0.1 µM
12,"O=C(O)[C@H]1C[C@H](c2c[nH]c3ncc4cccnc4c32)C1 [Compound 37, (1r,3r)-3-(7H-pyrrolo[2,3-h][1,6]naphthyridin-9-yl)cyclobutane-1-carboxylic acid]",0.01 to 0.1 µM
13,"Cn1cc(-c2ccc3cnc4c(c(C5CCC5)cn4C)c3c2)cn1 [Compound 38, 1-cyclobutyl-3-methyl-8-(1-methyl-1H-pyrazol-4-yl)-3H-pyrrolo[2,3-c]isoquinoline]",0.01 to 0.1 µM
14,"O=C(O)[C@H]1C[C@@H](c2c[nH]c3ncc4cccnc4c32)C1 [Compound 36, (1s,3s)-3-(7H-pyrrolo[2,3-h][1,6]naphthyridin-9-yl)cyclobutane-1-carboxylic acid]",0.1 to 1 µM
15,"CN1CCC(C#Cc2ncc(-c3ccc4cnc5c(ccn5C)c4c3)s2)CC1 [Compound 62, 5-(3-methyl-3H-pyrrolo[2,3-c]isoquinolin-8-yl)-2-((1-methylpiperidin-4-yl)ethynyl)thiazole]",0.01 to 0.1 µM
16,"Cn1cc(-c2ccc3c4c(ncc3c2)NC(=O)C4)cn1 [Compound 84, 7-(1-methyl-1H-pyrazol-4-yl)-1,3-dihydro-2H-pyrrolo[2,3-c]isoquinolin-2-one]",> 1 µM
17,O[C@H]1CCN(c2cncc(-c3ccc4cnc5[nH]c(C6CCC6)cc5c4c3)c2)C1 [Compound 69],0.01 to 0.1 µM
18,"Cn1cc(-c2ccc3cnc4c(c3c2)c([C@H]2CC[C@@H](N(C)C)CC2)cn4C)cn1 [Compound 49, (1s,4s)-N,N-dimethyl-4-(3-methyl-8-(1-methyl-1H-pyrazol-4-yl)-3H-pyrrolo[2,3-c]isoquinolin-1-yl)cyclohexan-1-amine]",0.01 to 0.1 µM

# Next, values leading:
row,IC50,SMILES
1,≤ 0.01 µM,"CN1CCC(c2cc3c(ncc4ccc(-c5cnn(C)c5)cc43)[nH]2)CC1 [Compound 40, 8-(1-methyl-1H-pyrazol-4-yl)-2-(1-methylpiperidin-4-yl)-3H-pyrrolo[2,3-c]isoquinoline]"
2,≤ 0.01 µM,"Cc1c(C2CCN(CC(F)F)CC2)[nH]c2ncc3ccc(-c4cnn(C)c4)cc3c12 [Compound 55, 2-(1-(2,2-difluoroethyl)piperidin-4-yl)-1-methyl-8-(1-methyl-1H-pyrazol-4-yl)-3H-pyrrolo[2,3-c]isoquinoline]"
3,≤ 0.01 µM,"c1ncc(-c2ccc3cnc4cc(C5CCOCC5)sc4c3c2)s1 [Compound 78, 2-(tetrahydro-2H-pyran-4-yl)-8-(thiazol-5-yl)thieno[3,2-c]isoquinoline]"
4,0.01 to 0.1 µM,Cc1cc2c(ncc3ccc(-c4cnc(C#CC5CCOCC5)s4)cc32)[nH]1 [Compound 64]
5,0.01 to 0.1 µM,"Cn1cc(-c2ccc3cnc4c(c3c2)c([C@H]2CC[C@H](N(C)C)CC2)cn4C)cn1 [Compound 50, (1r,4r)-N,N-dimethyl-4-(3-methyl-8-(1-methyl-1H-pyrazol-4-yl)-3H-pyrrolo[2,3-c]isoquinolin-1-yl)cyclohexan-1-amine]"
6,≤ 0.01 µM,"Cc1c(C2CCN(CCF)CC2)[nH]c2ncc3ccc(-c4cnn(C)c4)cc3c12 [Compound 54, 2-(1-(2-fluoroethyl)piperidin-4-yl)-1-methyl-8-(1-methyl-1H-pyrazol-4-yl)-3H-pyrrolo[2,3-c]isoquinoline]"
7,0.01 to 0.1 µM,"Cn1cc(-c2ccc3cnc4[nH]cc(-c5ccc(F)cc5)c4c3c2)cn1 [Compound 2, 1-(4-fluorophenyl)-8-(1-methyl-1H-pyrazol-4-yl)-3H-pyrrolo[2,3-c]isoquinoline]"
8,0.01 to 0.1 µM,Cn1ccc2c3cc(-c4cnc(C#CC5CCOCC5)s4)ccc3cnc21 [Compound 60]
9,0.01 to 0.1 µM,"CN1CCN(c2nccc3c2cnc2[nH]cc(-c4ccncc4)c23)CC1 [Compound 43, 6-(4-methylpiperazin-1-yl)-1-(pyridin-4-yl)-3H-pyrrolo[2,3-c][2, 7]naphthyridine]"
10,≤ 0.01 µM,"CC(C)CN1CCC(c2cc3c(ncc4ccc(-c5cncs5)cc43)[nH]2)CC1 [Compound 88, 5-(2-(1-isobutylpiperidin-4-yl)-3H-pyrrolo[2,3-c]isoquinolin-8-yl)thiazole]"
11,≤ 0.01 µM,CNC(=O)C1CCC(c2c[nH]c3ncc4ccc(-c5cnn(C)c5)cc4c23)CC1 (stereo not shown) [Compound 27]
12,0.01 to 0.1 µM,"Cc1ncc(-c2ccc3cnc4cc(C5CCOCC5)sc4c3c2)s1 [Compound 79, 8-(2-methylthiazol-5-yl)-2-(tetrahydro-2H-pyran-4-yl)thieno[3,2-c]isoquinoline]"
13,0.01 to 0.1 µM,"Cn1cc(-c2ccc3cnc4c(c3c2)c([C@H]2CC[C@@H](C(=O)O)CC2)cn4C)cn1 [Compound 46, 4-(3-methyl-8-(1-methyl-1H-pyrazol-4-yl)-3H-pyrrolo[2,3-c]isoquinolin-1-yl)cyclohexane-1-carboxylic acid]"
14,≤ 0.01 µM,"Cc1c(C2CCNCC2)[nH]c2ncc3ccc(-c4cnn(C)c4)cc3c12 [Compound 41, 1-methyl-8-(1-methyl-1H-pyrazol-4-yl)-2-(piperidin-4-yl)-3H-pyrrolo[2,3-c]isoquinoline]"
15,0.01 to 0.1 µM,"Cn1cc(-c2ccc3cnc4occc4c3c2)cn1 [Compound 76, 8-(1-methyl-1H-pyrazol-4-yl)furo[2,3-c]isoquinoline]"
16,≤ 0.01 µM,Cn1cc(-c2ccc3cnc4cc(C5CCOCC5)sc4c3c2)cn1 [Compound 72]
17,≤ 0.01 µM,"O[C@H]1CCN(c2cncc(-c3ccc4cnc5[nH]cc(C6CCC6)c5c4c3)c2)C1 [Compound 66, (S)-1-(5-(1-cyclobutyl-3H-pyrrolo[2,3-c]isoquinolin-8-yl)pyridin-3-yl)pyrrolidin-3-ol]"

# Same assay, conditions: Compounds of Formula (III); DYRK1A 1 nM, ATP 20 μM, Ser/Thr 18 peptide 2 μM, 90 minutes; read-out: DYRK1 IC50
row,IC50,SMILES
1,0.05 to 0.2 µM,Cn1ncc2ccc(-c3cnc(C#CC4CCNCC4)s3)cc21 [Compound 7]
2,0.2 to 1 µM,CN1CCC(C(=O)Nc2ncc(-c3ccc4sncc4c3)s2)CC1 [Compound 5]

# Same assay, conditions: Compounds of Formula (IV); DYRK1A 1 nM, ATP 20 μM, Ser/Thr 18 peptide 2 μM, 90 minutes; read-out: DYRK1 IC50
row,IC50,SMILES
1,1 to 5 µM,O=c1oc2cc3cnccc3cc2n1CCc1nc2ccccc2[nH]1 [Compound 4]
2,1 to 5 µM,CC(=O)N1CCc2c(cnc3[nH]cc(-c4cccc(Cl)c4)c23)C1 [Compound 10]
3,1 to 5 µM,COc1cc(-c2ccc3c4c([nH]c(=O)c3c2)CN(C)CC4)ccc1F [Compound 12]
4,1 to 5 µM,CN1CCc2c([nH]c(=O)c3cc(-c4ccnc5c4CCO5)ccc23)C1 [Compound 13]
5,1 to 5 µM,O=c1[nH]c2cc3c(cc2o1)[nH]c(=O)n3-c1cccc(O)c1 [Compound 11]
6,0.5 to 1 µM,CC(=O)N1CCc2c(cnc3[nH]cc(-c4ccncc4)c23)C1 [Compound 7]
